The test system of this experiment is M. tuberculosis H37Rv growth inhibition. The experiment in a line: Mycobacterium tuberculosis H37Rv growth inhibition, putative kinase inhibitor library, confirmatory dose response (AID 2842).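 Also: bacteria incubated one week before Alamar blue readout.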

Each structure is given as a SMILES string. Converted amounts (≈) assume the structure as drawn. A value given as a limit tells only on which side of the number the result lay.

For the compound `O=C(Nc1cccc(Br)c1)c1ccc([N+](=O)[O-])s1`, the 90% effect concentration (IC90) (commonly the point of the concentration-response curve where the effect stands at 90%) was < 0.2 µg/mL.

Take `CCCCOc1ccc(C(=O)N2CC(=O)Nc3ccc(Cl)cc3C2c2ccc(F)cc2)cc1` (stereo not given): the concentration for an effect of 90% (IC90) was 13.1 µg/mL (≈ 28.1 µM).

Take `O=C1CN(C(=O)c2cc(Br)ccc2Cl)C(c2ccccc2)c2cc(F)ccc2N1` (stereo not given): the IC90 was 26.1 µg/mL (≈ 55 µM).

Take `O=C(Nc1nnc(-c2cc(Cl)ccc2Cl)o1)c1ccc(S(=O)(=O)N2CCCCC2)cc1`: the concentration for an effect of 90% (IC90) was 11.7 µg/mL (≈ 24.3 µM).

Turning to `Cc1ccc(-c2nnc(NC(=O)c3ccccc3C)o2)c(C)c1`, the IC90 was 2.52 µg/mL (≈ 8.2 µM).

As to `O=C(Nc1nnc(-c2ccc(F)cc2)o1)c1ccc2c(c1)CCCC2`, the IC90 was 8.65 µg/mL (≈ 25.6 µM).

With `CC(=O)N1CCc2c(sc(NC(=O)c3cccc(C)c3)c2C(N)=O)C1`, the IC90 is 17.1 µg/mL (≈ 47.8 µM).

As to `COc1cc(OC)cc(C(=O)Nc2nnc(-c3ccc(Br)cc3)o2)c1`, the IC90 was 52.3 µg/mL (≈ 129 µM).

In the case of `COc1ccc(C(=O)Nc2nnc(-c3ccc(C)cc3C)o2)cc1`, the IC90 is 23.6 µg/mL (≈ 72.9 µM).

Consider `CN(C)c1ccc(Nc2nncc(=O)[nH]2)cc1`, for which the IC90 was 8.05 µg/mL (≈ 34.8 µM).

Regarding `Cc1ccc(-c2nnc3c4cc5c(cc4n(Cc4ccccc4F)cc2-3)OCCO5)cc1C`, the IC90 is 6.25 µg/mL (≈ 14.2 µM).

`Cc1ccc(C)c(-c2nnc(NC(=O)COc3ccccc3)o2)c1`: the IC90 is 2.24 µg/mL (≈ 6.93 µM).

With `CSc1ccccc1-c1nnc(NC(=O)c2cc([N+](=O)[O-])ccc2Cl)o1`, the IC90 was 2.12 µg/mL (≈ 5.42 µM).

Consider `Cc1ccc(Nc2nc(N3CCN(c4ccccc4)CC3)nc3nccnc23)cc1C`, for which the 90% effect concentration (IC90) is 32 µg/mL (≈ 77.7 µM).

With `O=S(=O)(Nc1cc(Cl)c(O)c2ccccc12)c1ccc(F)cc1`, the concentration for an effect of 90% (IC90) is 6.28 µg/mL (≈ 17.9 µM).

On to `CCOc1ccc2nc(N(CCCn3ccnc3)C(=O)c3ccc(F)cc3)sc2c1`, for which the IC90 is 7.77 µg/mL (≈ 18.3 µM).

As to `Cc1ccc(-c2nnc(NC(=O)c3ccc(S(=O)(=O)N(C)C)cc3)o2)c(C)c1`, the IC90 is 41.1 µg/mL (≈ 103 µM).

With `COc1ccc(CNc2nccn(-c3cc(C)c(Cl)cc3OC)c2=O)cc1`, the 90% effect concentration (IC90) is 18.1 µg/mL (≈ 46.8 µM).

Turning to `CCOc1cccc2nc(NC(=O)c3ccc(Oc4ccccc4)cc3)sc12`, the IC90 was 13.7 µg/mL (≈ 35.1 µM).

Turning to `COc1ccc(-n2nnc3c(SCC(N)=O)ncnc32)cc1`, the 90% effect concentration (IC90) is 5.67 µg/mL (≈ 17.9 µM).

With `CCOc1ccc(-c2nnc3c4cc5c(cc4n(Cc4cccc(OC)c4)cc2-3)OCCO5)cc1`, the IC90 was 3.52 µg/mL (≈ 7.53 µM).

With `COc1ccc(-c2nnc(NC(=O)c3ccc(Cl)s3)o2)cc1`, the IC90 is 0.94 µg/mL (≈ 2.8 µM).

Regarding `COc1ccccc1C(=O)Nc1nnc(-c2cc(C)ccc2C)o1`, the concentration for an effect of 90% (IC90) was 1.92 µg/mL (≈ 5.94 µM).

Take `COc1ccc2nc(Nc3nc4c(OC)cccc4s3)sc2c1`: the IC90 is 3.38 µg/mL (≈ 9.84 µM).

For the compound `CCOC(=O)CNC(=O)CSc1ncnc2c1nnn2-c1ccc(OC)cc1`, the 90% effect concentration (IC90) is 6.79 µg/mL (≈ 16.9 µM).

Regarding `Oc1ccc2ccccc2c1N=Nc1nn[nH]n1`, the IC90 is < 0.2 µg/mL.

For `O=C(OCc1nc2ccccc2s1)c1ccc(C(=O)c2ccccc2)cc1`, the IC90 is 17.3 µg/mL (≈ 46.2 µM).

For `Fc1cccc2sc(Nc3nnc(-c4ccccc4Cl)o3)nc12`, the IC90 was 16.8 µg/mL (≈ 48.3 µM).

With `Cc1ccc(S(=O)(=O)CCCC(=O)Nc2nc3c(Cl)c(Cl)ccc3s2)cc1`, the concentration for an effect of 90% (IC90) was 3.41 µg/mL (≈ 7.69 µM).

Take `CCc1ccc(-c2ccc(SCC(N)=O)nn2)cc1`: the IC90 is 4.66 µg/mL (≈ 17 µM).

Take `COC(=O)COc1cccc(/C=C2\Oc3cc(OC)ccc3C2=O)c1`: the 90% effect concentration (IC90) was 17.3 µg/mL (≈ 50.7 µM).

For the compound `O=C(Nc1cccc(C(F)(F)F)c1)NC1CC(=O)N(c2cccc(F)c2)C1` (stereo not given), the concentration for an effect of 90% (IC90) was 8.52 µg/mL (≈ 22.3 µM).

Turning to `Cc1ccc(NC(=O)CC2C(=O)Nc3ccccc3N2C(=O)c2ccc(Br)cc2)cc1C` (stereo not given), the 90% effect concentration (IC90) is 2.24 µg/mL (≈ 4.55 µM).

For `Cc1ccc(C)c(-c2nnc(NC(=O)/C=C/c3cccs3)o2)c1`, the IC90 is 54.5 µg/mL (≈ 168 µM).

In the case of `O=C(CCOc1ccccc1)Nc1nnc(-c2cc(Cl)ccc2Cl)o1`, the IC90 was 1.79 µg/mL (≈ 4.73 µM).

In the case of `COc1ccc2nc(Nc3nc4c(s3)CCCC4)sc2c1`, the IC90 is 20.7 µg/mL (≈ 65.1 µM).

In the case of `Cc1ccc(C)c(-c2nnc(NC(=O)c3ccc(S(=O)(=O)N(C)c4ccccc4)cc3)o2)c1`, the concentration for an effect of 90% (IC90) is 13.3 µg/mL (≈ 28.8 µM).

Take `Cc1cccc(-c2nc(SCC(=O)Nc3ccc4c(c3)OCO4)c(-c3ccccc3)[nH]2)c1`: the IC90 is 9.98 µg/mL (≈ 22.5 µM).

`COc1ccc(C)c2sc(NNC(=O)c3ccccc3)nc12`: the IC90 is 4.03 µg/mL (≈ 12.9 µM).

Consider `CC(C)OC(=O)c1ccc(NC(=O)C2COc3ccccc3O2)cc1` (stereo not given), for which the concentration for an effect of 90% (IC90) was 7.2 µg/mL (≈ 21.1 µM).

Regarding `COc1ccc2nc(N3CCCC3)sc2c1`, the IC90 was 8.36 µg/mL (≈ 35.7 µM).

Regarding `O=C(Nc1nnc(-c2cccs2)o1)c1cccc(C(F)(F)F)c1`, the IC90 is 3.48 µg/mL (≈ 10.3 µM).

Turning to `COc1ccc(N2CC(c3nc4ccccc4n3Cc3ccccc3C)CC2=O)cc1` (stereo not given), the IC90 is 20.1 µg/mL (≈ 48.8 µM).

For the compound `CCOc1ccc2nc(N3CCCC3)sc2c1`, the IC90 was 17.2 µg/mL (≈ 69.3 µM).

Take `O=C(COc1ccc2c3c(c(=O)oc2c1)CCCC3)OC1CCCCC1`: the IC90 is 9.71 µg/mL (≈ 27.2 µM).

As to `COc1cccc(C(=O)Nc2nc3c(s2)CCc2ccccc2-3)c1`, the IC90 was 11.3 µg/mL (≈ 33.6 µM).

`Cc1ccc(C)c(-c2nnc(NC(=O)c3ccc(S(=O)(=O)N4CCc5ccccc54)cc3)o2)c1`: the IC90 was 12.4 µg/mL (≈ 26.1 µM).

Turning to `Cc1nnc(SCC(=O)Nc2ccc3c(c2)OCCO3)n(N)c1=O`, the 90% effect concentration (IC90) was 23.1 µg/mL (≈ 66.2 µM).

On to `COc1ccc(OC)c(NC(=O)c2cc3cc(Cl)ccc3oc2=O)c1`, for which the 90% effect concentration (IC90) was 0.77 µg/mL (≈ 2.14 µM).

For `COc1ccc(C(=O)Nc2nc3c(s2)CCCC3)c(OC)c1`, the 90% effect concentration (IC90) was 6.13 µg/mL (≈ 19.3 µM).

The values above are taken from PubChem BioAssay AID2842 (Southern Research Institute, 2010).
